Test results taken from US11603377B2, “MTORC1 modulators and uses thereof” (Aeovian Pharmaceuticals, Inc., priority 2020, dated 2023).

Key:
mTORC1 = mTORC1 (Homo sapiens (Human), UniProt P42345+P62942); assay: mTORC1 inhibition, AlphaLISA of Phospho-p70 S6 kinase (p70S6K pT389) in PC-3 cells; assay type: cell-based; details: inhibition of p70S6K pT389 levels
FKBP12 = FKBP12 (Homo sapiens (Human), UniProt P62942); assay: SPR assay to determine binding affinity to FKBP12 (direct binding); details: immobilized biotinylated avi-FKBP12
[1] = molecular target: FKBP12 / FRB ternary complex (Homo sapiens (Human), UniProt P42345+P62942); assay: SPR assay to characterize ternary complex formation with FKBP12 (FRB binding to rapalog-saturated FKBP12); details: FRB dilutions with 100 nM rapalog on immobilized FKBP12
How it was run: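 Biotinylated avi-FKBP12 immobilized (~100 RU) on streptavidin chip; A-B-A injections kept FKBP12 saturated with 100 nM rapalog while FRB (0.00011–20 μM, 3-fold, 12 points) was injected 120 s.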

mTORC2 = mTORC2 (Homo sapiens (Human), UniProt P42345+P62942); assay: mTORC2 inhibition, AlphaLISA of Phospho-AKT (pAKT pS473) in PC3 cells; assay type: cell-based
[2] = molecular target: FKBP51 / FRB ternary complex (Homo sapiens (Human), UniProt P42345+Q13451); assay: SPR assay to characterize ternary complex formation with FKBP51 (FRB binding to rapalog-saturated FKBP51); details: FRB dilutions with 100 nM rapalog on immobilized FKBP51
How it was run: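 SPR with biotinylated avi-FKBP51 on streptavidin chip (~200 RU); FRB (0.00011-20 μM, 3-fold series) injected with 100 nM rapalog, A-B-A mode keeping FKBP saturated with rapalog.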

FKBP51 = FKBP51 (Homo sapiens (Human), UniProt Q13451); assay: SPR assay to determine binding affinity to FKBP51 (direct binding); details: immobilized biotinylated avi-FKBP51
How it was run: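 Biotinylated avi-FKBP51 captured on streptavidin chip to about 2000 RU. Compounds injected at 0.5-1000 nM (8 points, 3-fold) for 120 s contact and 3600 s dissociation in 50 mM HEPES pH 7.5, 150 mM NaCl, 2 mM MgCl2, 1 mM DTT, 0.05% Tween-20, 1% DMSO.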

Sequence of FKBP51 (Q13451 whole entry): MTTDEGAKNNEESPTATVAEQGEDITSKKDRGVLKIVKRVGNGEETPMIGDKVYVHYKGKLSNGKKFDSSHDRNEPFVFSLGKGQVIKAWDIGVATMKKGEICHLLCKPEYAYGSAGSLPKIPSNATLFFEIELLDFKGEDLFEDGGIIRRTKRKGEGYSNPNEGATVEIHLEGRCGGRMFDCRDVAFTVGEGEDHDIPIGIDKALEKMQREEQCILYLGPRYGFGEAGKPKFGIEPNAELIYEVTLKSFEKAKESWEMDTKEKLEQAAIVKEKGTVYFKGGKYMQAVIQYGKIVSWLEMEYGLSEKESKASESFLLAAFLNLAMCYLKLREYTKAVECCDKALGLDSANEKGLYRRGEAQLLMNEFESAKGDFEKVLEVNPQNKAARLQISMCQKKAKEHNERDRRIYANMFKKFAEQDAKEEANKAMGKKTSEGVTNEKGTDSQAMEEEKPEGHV
Sequence of FKBP12 (P62942 whole entry): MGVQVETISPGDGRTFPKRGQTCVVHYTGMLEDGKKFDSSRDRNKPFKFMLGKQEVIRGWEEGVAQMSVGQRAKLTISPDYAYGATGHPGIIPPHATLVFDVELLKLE

COC1CC(CC(C)C2CC(=O)C(C)C=C(C)C(O)C(OC)C(=O)C(C)CC(C)C=CC=CC=C(C)C(OC3CC3)CC3CCC(C)C(O)(O3)C(=O)C(=O)N3CCCCC3C(=O)O2)CCC1OCCCO (stereo not drawn) [Compound 53]
IC50 (mTORC1): 0.0001 to 0.0008 µM | Kd (FKBP12): 0.0003 to 0.001 µM | Kd [1]: < 0.3 µM | mTORC2 % inhibition at 1 uM (mTORC2): C (C≥40% and less than 60% inhibition at 1 uM) | Kd [2]: > 0.8 µM | Kd (FKBP51): > 0.1 µM

CO[C@@H]1C[C@H](C[C@@H](C)[C@@H]2CC(=O)[C@H](C)/C=C(\C)[C@@H](O)[C@@H](OC)C(=O)[C@H](C)C[C@H](C)/C=C/C=C/C=C(\C)[C@@H](OCC3CCOC3)C[C@@H]3CC[C@@H](C)[C@@](O)(O3)C(=O)C(=O)N3CCCC[C@H]3C(=O)O2)CC[C@H]1O (stereo partly drawn) [Compound 31]
IC50 (mTORC1): 0.0001 to 0.0008 µM | Kd (FKBP12): < 0.0003 µM | Kd [1]: > 0.8 µM | mTORC2 % inhibition at 1 uM (mTORC2): A (A ≤20% inhibition at 1 micro Molar (uM)) | Kd [2]: > 0.8 µM | Kd (FKBP51): 0.01 to 0.1 µM

COCCO[C@H]1C[C@@H]2CC[C@@H](C)[C@@](O)(O2)C(=O)C(=O)N2CCCC[C@H]2C(=O)O[C@H]([C@H](C)C[C@@H]2CC[C@@H](OCCCS(C)(=O)=O)[C@H](OC)C2)CC(=O)[C@H](C)/C=C(\C)[C@@H](O)[C@@H](OC)C(=O)[C@H](C)C[C@H](C)/C=C/C=C/C=C/1C [Compound 61]
IC50 (mTORC1): < 0.0001 µM | Kd (FKBP12): < 0.0003 µM | Kd [1]: < 0.3 µM | mTORC2 % inhibition at 1 uM (mTORC2): B (B>20% and less than 40% inhibition at 1 uM) | Kd [2]: > 0.8 µM | Kd (FKBP51): > 0.1 µM

COC1CC(CC(C)C2CC(=O)C(C)C=C(C)C(O)C(OC)C(=O)C(C)CC(C)C=CC=CC=C(C)C(OCC3CC3)CC3CCC(C)C(O)(O3)C(=O)C(=O)N3CCCCC3C(=O)O2)CCC1OCCCO (stereo not drawn) [Compound 42]
IC50 (mTORC1): > 0.0008 µM | Kd (FKBP12): > 0.001 µM | Kd [1]: 0.3 to 0.8 µM | mTORC2 % inhibition at 1 uM (mTORC2): A (A ≤20% inhibition at 1 micro Molar (uM)) | Kd [2]: > 0.8 µM | Kd (FKBP51): > 0.1 µM

CO[C@@H]1C[C@H](C[C@@H](C)[C@@H]2CC(=O)[C@H](C)/C=C(\C)[C@@H](O)[C@@H](OC)C(=O)[C@H](C)C[C@H](C)/C=C/C=C/C=C(\C)[C@H](NS(=O)(=O)CC3CCCC3)C[C@@H]3CC[C@@H](C)[C@@](O)(O3)C(=O)C(=O)N3CCCC[C@H]3C(=O)O2)CC[C@H]1O [Compound 22]
IC50 (mTORC1): 0.0001 to 0.0008 µM | Kd (FKBP12): < 0.0003 µM | Kd [1]: > 0.8 µM | mTORC2 % inhibition at 1 uM (mTORC2): A (A ≤20% inhibition at 1 micro Molar (uM)) | Kd [2]: > 0.8 µM | Kd (FKBP51): > 0.1 µM

CO[C@@H]1C[C@H](C[C@@H](C)[C@@H]2CC(=O)[C@H](C)/C=C(\C)[C@@H](O)[C@@H](OC)C(=O)[C@H](C)C[C@H](C)/C=C/C=C/C=C(\C)[C@@H](OCCC3CCS(=O)(=O)C3)C[C@@H]3CC[C@@H](C)[C@@](O)(O3)C(=O)C(=O)N3CCCC[C@H]3C(=O)O2)CC[C@H]1O (stereo partly drawn) [Compound 27]
IC50 (mTORC1): > 0.0008 µM | Kd (FKBP12): < 0.0003 µM | Kd [1]: > 0.8 µM | mTORC2 % inhibition at 1 uM (mTORC2): A (A ≤20% inhibition at 1 micro Molar (uM)) | Kd [2]: > 0.8 µM | Kd (FKBP51): 0.01 to 0.1 µM

CO[C@@H]1C[C@H](C[C@@H](C)[C@@H]2CC(=O)[C@H](C)/C=C(\C)[C@@H](O)[C@@H](OC)C(=O)[C@H](C)C[C@H](C)/C=C/C=C/C=C(\C)[C@H](NS(=O)(=O)CC3CCCCC3)C[C@@H]3CC[C@@H](C)[C@@](O)(O3)C(=O)C(=O)N3CCCC[C@H]3C(=O)O2)CC[C@H]1O [Compound 19]
IC50 (mTORC1): > 0.0008 µM | Kd (FKBP12): 0.0003 to 0.001 µM | Kd [1]: > 0.8 µM | mTORC2 % inhibition at 1 uM (mTORC2): B (B>20% and less than 40% inhibition at 1 uM) | Kd [2]: > 0.8 µM | Kd (FKBP51): > 0.1 µM

COC1CC(CC(C)C2CC(=O)C(C)C=C(C)C(O)C(OC)C(=O)C(C)CC(C)C=CC=CC=C(C)C(OCC3CCC3)CC3CCC(C)C(O)(O3)C(=O)C(=O)N3CCCCC3C(=O)O2)CCC1OCCCO (stereo not drawn) [Compound 44]
IC50 (mTORC1): 0.0001 to 0.0008 µM | Kd (FKBP12): > 0.001 µM | Kd [1]: < 0.3 µM | mTORC2 % inhibition at 1 uM (mTORC2): C (C≥40% and less than 60% inhibition at 1 uM) | Kd [2]: > 0.8 µM | Kd (FKBP51): > 0.1 µM

COC1CC(CC(C)C2CC(=O)C(C)C=C(C)C(O)C(OC)C(=O)C(C)CC(C)C=CC=CC=C(C)C(OCC3CC3)CC3CCC(C)C(O)(O3)C(=O)C(=O)N3CCCCC3C(=O)O2)CCC1OCCO (stereo not drawn) [Compound 54]
IC50 (mTORC1): 0.0001 to 0.0008 µM | Kd (FKBP12): > 0.001 µM | Kd [1]: < 0.3 µM | mTORC2 % inhibition at 1 uM (mTORC2): B (B>20% and less than 40% inhibition at 1 uM) | Kd [2]: > 0.8 µM | Kd (FKBP51): > 0.1 µM

COC1C[C@H]2CC[C@H](C)[C@](O)(O2)C(=O)C(=O)N(C)C(C)C(=O)OC([C@H](C)C[C@@H]2CC[C@@H](OCCCS(C)(=O)=O)[C@H](OC)C2)CC(=O)C(C)/C=C(\C)C(O)C(OC)C(=O)C(C)CC/C=C/C=C/C=C/1C (stereo partly drawn) [Compound 59]
IC50 (mTORC1): < 0.0001 µM | Kd (FKBP12): < 0.0003 µM | Kd [1]: < 0.3 µM | mTORC2 % inhibition at 1 uM (mTORC2): D (D≥60% inhibition at 1 uM) | Kd [2]: 0.3 to 0.8 µM | Kd (FKBP51): 0.01 to 0.1 µM
